Among the data in patent US20250304542A1, “Fused Heterobicyclic Antiviral Agents” (Enanta Pharmaceuticals, Inc., priority 2024, published 2025) are EC50 values, retold here.

Assay [1] has as its system HBV. As to the kind of experiment: HBV Infection in HepG2-NTCP Cells (HBeAg AlphaLISA). It is filed as cell-based. As to conditions: Hepatitis B virus, 192 h. Here is the method: HepG2-NTCP A3 cells were maintained in DMEM media supplemented with GlutaMAX™, 10% fetal bovine serum, 1% penicillin/streptomycin, and 5 μg/mL puromycin at 37° C. in a humidified atmosphere with 5% CO2 in a collagen-coated tissue culture flask.
HepG2-NTCP cells were seeded in 384 well plate containing 16,000 cells/well two days prior to the infection. On the day of infection, compounds were 3-fold serially diluted in DMSO and pre-incubated with HepG2-NTCP cells for two hours before purified HBV addition. HBV infection was carried out at 2000 GE/cell with 4% PEG, and the final concentration of DMSO is 0.5%. On day one post infection, HBV-containing media was aspirated, cells were washed once with PBS and then maintained in 2.5% DMSO containing media for the remainder of the assay.
Supernatants from infected HepG2-NTCP cells were collected at day 8 post infection, and the amount of viral antigen HBeAg was measured by HBeAg AlphaLISA detection kit (PerkinElmer) following the manufacturer's recommended protocol. Irrespective of readout, compound concentrations that reduce viral product accumulation in supernatants by 50% relative to DMSO controls (EC50) are reported. EC50 ranges are as follows: A<0.1 μM; B 0.1-1 μM; C>1 μM. A dash (-) indicates the compound was not tested.
(Alpha assays give light when donor and acceptor beads are brought close together.)

Assay [2] deals with T1, NTCP (Homo sapiens, UniProt Q14973).
T1 construct: expressed in transfected cells; host or cells: HepG2-NTCP (A3 clone, kept under puromycin)
T1 sequence (Q14973 1-349): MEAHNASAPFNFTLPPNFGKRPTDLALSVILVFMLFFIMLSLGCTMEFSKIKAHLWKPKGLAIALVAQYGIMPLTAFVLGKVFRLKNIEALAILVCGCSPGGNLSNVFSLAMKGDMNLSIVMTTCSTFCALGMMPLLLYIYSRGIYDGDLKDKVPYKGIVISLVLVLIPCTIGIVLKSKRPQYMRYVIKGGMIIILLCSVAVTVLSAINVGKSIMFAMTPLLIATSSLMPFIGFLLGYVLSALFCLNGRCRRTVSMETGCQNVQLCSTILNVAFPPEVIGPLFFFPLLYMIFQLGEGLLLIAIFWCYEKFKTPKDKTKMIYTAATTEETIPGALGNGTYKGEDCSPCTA
The assay can be described thus: HepG2-NTCP preS1 Binding Competition Assay. As to conditions: HepG2-NTCP cells pre-treated 2 hours, FITC-labeled myristoylated preS1 peptide co-incubated 30 minutes, cell-surface fluorescence; read-out: Cellular EC50. On the procedure:
Myristoylated preS1 peptide (2-48 aa) conjugated to a C-terminal FITC tag was synthesized to evaluate preS1 binding to NTCP-expressing cells. HepG2-NTCP cells seeded in 384-wells were pre-treated with compounds for 2 hours prior to the addition of FITC-labeled preS1 peptide. After co-incubation for 30 minutes, unbound FITC-preS1 peptide was washed twice with PBS, and the fluorescence of preS1-FITC bound to cell surface was detected by Envision plate reader. EC50 ranges are as follows: A<0.1 μM; B 0.1-1 μM; C>1 μM. A dash (-) indicates the compound was not tested.

SMILES strings stand for the structures. Like-named read-outs stand apart in the source and are kept apart here.

In the case of `CN1[C@H](C2CCCCC2)CN(c2ccccc2)c2cc(Cl)c(C#CC(C)(C)C(=O)O)cc2S1(=O)=O` [Example 1, (R)-4-(7-chloro-3-cyclohexyl-2-methyl-1,1-dioxido-5-phenyl-2,3,4,5-tetrahydrobenzo[f][1,2,5]thiadiazepin-8-yl)-2,2-dimethylbut-3-ynoic acid], the EC50 was under 0.1 µM in assay [1] (read-out: Cellular EC50 (μM)) and under 100 nM in assay [2].
For the compound `CN1[C@H](C2CCCCC2)CN(c2ccccc2)c2cc(Cl)c(CCC(C)(C)C(=O)O)cc2S1(=O)=O` [Example 2, (R)-4-(7-chloro-3-cyclohexyl-2-methyl-1,1-dioxido-5-phenyl-2,3,4,5-tetrahydrobenzo[f][1,2,5]thiadiazepin-8-yl)-2,2-dimethylbutanoic acid], the EC50 in assay [1] (read-out: Cellular EC50 (μM)) was under 0.1 µM; in assay [2], under 100 nM.
As for `CN1[C@H](C2CCCCC2)CN(C2CCCCC2)c2ccc(CCC(C)(C)C(=O)O)cc2S1(=O)=O` [Example 3, (R)-4-(3,5-dicyclohexyl-2-methyl-1,1-dioxido-2,3,4,5-tetrahydrobenzo[f][1,2,5]thiadiazepin-8-yl)-2,2-dimethylbutanoic acid], the EC50 in assay [1] (read-out: Cellular EC50 (μM)) was 0.1 to 1 µM; in assay [2], under 100 nM.
Take `CN1[C@H](C2CCCCC2)CN(C2CCCCC2)c2cc(Cl)c(CCC(C)(C)C(=O)O)cc2S1(=O)=O` [Example 4, (R)-4-(7-chloro-3,5-dicyclohexyl-2-methyl-1,1-dioxido-2,3,4,5-tetrahydrobenzo[f][1,2,5]thiadiazepin-8-yl)-2,2-dimethylbutanoic acid]: the EC50 in assay [1] (read-out: Cellular EC50 (μM)) was 0.1 to 1 µM; in assay [2], under 100 nM.
In the same order, the values of `CN1[C@H](C2CCCCC2)CN(c2ccccc2)c2cc(Cl)c(C#CC3(C(=O)O)CC3)cc2S1(=O)=O` [Example 5] are under 0.1 µM and 100 to 1000 nM.
For `CN1[C@H](C2CCCCC2)CN(c2ccccc2)c2cc(Cl)c(CCC3(C(=O)O)CC3)cc2S1(=O)=O` [Example 6], the figures for the EC50 in assay [1] (read-out: Cellular EC50 (μM)) and in assay [2] were under 0.1 µM and 100 to 1000 nM, respectively.
For `CN1[C@H](C2CCCCC2)CN(c2ccccc2)c2cc(F)c(CCCC(=O)O)cc2S1(=O)=O` [Example 7], the EC50 in assay [1] (read-out: Cellular EC50 (μM)) fell in the range of 0.1 to 1 µM; in assay [2], 100 to 1000 nM.
Regarding `CN1[C@H](C2CCCCC2)CN(C2CCCCC2)c2cc(Cl)c(/C=C/C(C)(C)C(=O)O)cc2S1(=O)=O` [Example 10, (R,E)-4-(7-chloro-3,5-dicyclohexyl-2-methyl-1,1-dioxido-2,3,4,5-tetrahydrobenzo[f][1,2,5]thiadiazepin-8-yl)-2,2-dimethylbut-3-enoic acid], in assay [2], the EC50 was in the range of 100 to 1000 nM.
In the case of `CC(C)Oc1cccc(COc2cc3c(cc2C#CC2(C(=O)O)CC2)S(=O)(=O)N(C)[C@H](C2CCCCC2)CN3c2ccccc2)c1` [Example 11, (R)-1-((3-cyclohexyl-7-((3-isopropoxybenzyl)oxy)-2-methyl-1,1-dioxido-5-phenyl-2,3,4,5-tetrahydrobenzo[f][1,2,5]thiadiazepin-8-yl)ethynyl)cyclopropane-1-carboxylic acid], the EC50 in assay [1] (read-out: Cellular EC50 (μM)) is under 0.1 µM; in assay [2], 100 to 1000 nM.
In the same order, the values of `CN1[C@H](C2CCCCC2)CN(c2ccccc2)c2cc(Cl)c(CC[C@H](NC(=O)OC(C)(C)C)C(=O)O)cc2S1(=O)=O` [Example 12, (S)-2-((tert-butoxycarbonyl)amino)-4-((R)-7-chloro-3-cyclohexyl-2-methyl-1,1-dioxido-5-phenyl-2,3,4,5-tetrahydrobenzo[f][1,2,5]thiadiazepin-8-yl)butanoic acid] are under 0.1 µM and under 100 nM.
Turning to `CN1[C@H](C2CCCCC2)CN(c2ccccc2)c2cc(Cl)c(CC[C@@H](NC(=O)OC(C)(C)C)C(=O)O)cc2S1(=O)=O` [Example 13], the figures for the EC50 in assay [1] (read-out: Cellular EC50 (μM)) and in assay [2] were under 0.1 µM and under 100 nM, respectively.
On to `CCCCCOC(=O)N[C@H](CCc1cc2c(cc1Cl)N(c1ccccc1)C[C@@H](C1CCCCC1)N(C)S2(=O)=O)C(=O)O` [Example 17], for which the EC50 in assay [2] was in the range of 100 to 1000 nM.
Still for that read-out and setting: next, `CCOC(=O)N[C@@H](CCc1cc2c(cc1Cl)N(c1ccccc1)C[C@@H](C1CCCCC1)N(C)S2(=O)=O)C(=O)O` [Example 18]: 100 to 1000 nM.
Consider `CCOC(=O)N[C@H](CCc1cc2c(cc1Cl)N(c1ccccc1)C[C@@H](C1CCCCC1)N(C)S2(=O)=O)C(=O)O` [Example 19], for which the EC50 in assay [2] lay within 100 to 1000 nM.
Turning to `CCCCCCCCCOC(=O)N[C@@H](CCc1cc2c(cc1Cl)N(c1ccccc1)C[C@@H](C1CCCCC1)N(C)S2(=O)=O)C(=O)O` [Example 20], the EC50 in assay [2] was in the range of 100 to 1000 nM.
`CCCCCCCCCOC(=O)N[C@H](CCc1cc2c(cc1Cl)N(c1ccccc1)C[C@@H](C1CCCCC1)N(C)S2(=O)=O)C(=O)O` [Example 21]: the EC50 in assay [2] was in the range of 100 to 1000 nM.
On to `CN1[C@H](C2CCCCC2)CN(c2ccccc2)c2cc(Cl)c(CC[C@@H](NC(=O)OCc3ccccc3)C(=O)O)cc2S1(=O)=O` [Example 23], for which, in assay [2], the EC50 is 100 to 1000 nM.
Regarding `CN1[C@H](C2CCCCC2)CN(c2ccccc2)c2cc(Cl)c(CC[C@@H](NC(=O)N3CCCCC3)C(=O)O)cc2S1(=O)=O` [Example 24, (R)-4-((R)-7-chloro-3-cyclohexyl-2-methyl-1,1-dioxido-5-phenyl-2,3,4,5-tetrahydrobenzo[f][1,2,5]thiadiazepin-8-yl)-2-(piperidine-1-carboxamido)butanoic acid], the EC50 in assay [2] fell in the range of 100 to 1000 nM.
Regarding `CCN(C)C(=O)N[C@H](CCc1cc2c(cc1Cl)N(c1ccccc1)C[C@@H](C1CCCCC1)N(C)S2(=O)=O)C(=O)O` [Example 25, (R)-4-((R)-7-chloro-3-cyclohexyl-2-methyl-1,1-dioxido-5-phenyl-2,3,4,5-tetrahydrobenzo[f][1,2,5]thiadiazepin-8-yl)-2-(3-ethyl-3-methylureido)butanoic acid], the EC50 in assay [2] was in the range of 100 to 1000 nM.
Still for that read-out and setting: next, `CCN(C)C(=O)N[C@@H](CCc1cc2c(cc1Cl)N(c1ccccc1)C[C@@H](C1CCCCC1)N(C)S2(=O)=O)C(=O)O` [Example 26]: 100 to 1000 nM.
With `CN1[C@H](C2CCCCC2)CN(c2ccccc2)c2cc(Cl)c(CC[C@H](NC(=O)N3CCCCC3)C(=O)O)cc2S1(=O)=O` [Example 27], the EC50 in assay [2] lay in the range of 100 to 1000 nM.
Take `CC(C)CS(=O)(=O)N[C@@H](CCc1cc2c(cc1Cl)N(c1ccccc1)C[C@@H](C1CCCCC1)N(C)S2(=O)=O)C(=O)O` [Example 28, (S)-4-((R)-7-chloro-3-cyclohexyl-2-methyl-1,1-dioxido-5-phenyl-2,3,4,5-tetrahydrobenzo[f][1,2,5]thiadiazepin-8-yl)-2-((2-methylpropyl)sulfonamido)butanoic acid]: the EC50 in assay [2] fell in the range of 100 to 1000 nM.
As to `CN1[C@H](C2CCCCC2)CN(c2ccccc2)c2cc(Cl)c(CC[C@H](NC(=O)C(=O)N3CCCC3)C(=O)O)cc2S1(=O)=O` [Example 35], the EC50 in assay [2] is 100 to 1000 nM.
On to `CCCCCC(=O)N[C@@H](CCc1cc2c(cc1Cl)N(c1ccccc1)C[C@@H](C1CCCCC1)N(C)S2(=O)=O)C(=O)O` [Example 36, (S)-4-((R)-7-chloro-3-cyclohexyl-2-methyl-1,1-dioxido-5-phenyl-2,3,4,5-tetrahydrobenzo[f][1,2,5]thiadiazepin-8-yl)-2-hexanamidobutanoic acid], for which, in assay [2], the EC50 was 100 to 1000 nM.
Consider `CN1[C@H](C2CCCCC2)CN(c2ccccc2)c2cc(Cl)c(OCC(C)(C)C(=O)O)cc2S1(=O)=O` [Example 38, (R)-3-((7-chloro-3-cyclohexyl-2-methyl-1,1-dioxido-5-phenyl-2,3,4,5-tetrahydrobenzo[f][1,2,5]thiadiazepin-8-yl)oxy)-2,2-dimethylpropanoic acid], for which the EC50 in assay [1] (HBV-infected HepG2-NTCP cells, HBeAg in supernatants at day 8 post infection, 50% reduction relative to DMSO controls, read-out: Cellular EC50) fell in the range of 0.1 to 1 µM.
Take `CNc1cc2c(cc1C(=O)NC1(C(=O)O)CC1)S(=O)(=O)N(C)[C@H](C1CCCCC1)CN2c1ccccc1` [Example 42]: in assay [2], the EC50 was over 1000 nM.
As for `CNc1cc2c(cc1C(=O)NC(C)(C)C(=O)O)S(=O)(=O)N(C)[C@H](C1CCCCC1)CN2c1ccccc1` [Example 43], the EC50 in assay [2] was in the range of 100 to 1000 nM.
Regarding `CNc1cc2c(cc1C(=O)N[C@H](C(=O)O)C1CCOCC1)S(=O)(=O)N(C)[C@H](C1CCCCC1)CN2c1ccccc1` [Example 44], the EC50 in assay [2] was over 1000 nM.
As to `CNc1cc2c(cc1C(=O)N[C@@H](C(=O)O)c1cccc(Cl)c1)S(=O)(=O)N(C)[C@H](C1CCCCC1)CN2c1ccccc1` [Example 46], in assay [2], the EC50 lay in the range of 100 to 1000 nM.

A word on the EC50: it is the concentration needed to bring the measured effect to its halfway point.
